Experimental data published in patent publication US6676932B2, “Ultraviolet absorbent, photostabilizer, ultraviolet ray-absorbing composition, photostabilized composition and external preparation for skin” (Shiseido Co., Ltd., priority 2001, dated 2004).

How the values were obtained:
Assay type in all cases: physicochemical
[1] = Stabilization effect on perfume under daylight exposure (Test Examples 92 to 181); design: key: ◯: no change; Δ: almost no change; x: change; conditions: daylight exposure (80 MJ)
Protocol: Each test sample was prepared for observation of the change of the odor of the test sample (determined by perfume coordinator) before and after daylight exposure (80 MJ).

[2] = Dye stabilization effect under daylight exposure (Test Examples 6-91); design: key to Δ E: color difference ΔE in Lab vs. color before daylight exposure; key to Appearance (visual determination): ◯: no change; Δ: almost no change; x: change; conditions: photostabilizer 0.05 wt %, daylight exposure (80 MJ)
Protocol: For observation of the change of the appearance of each test sample (determination based on visual observation) and the measurement of color difference (ΔE) before and after daylight exposure (80 MJ), the test sample was prepared.
(§1) With a spectrophotometer, the color was measured on the Lab coordinate system, to calculate the color difference on the basis of the color before daylight exposure. More specifically, the color difference (ΔE) was calculated on the basis of the measured values (L1, a1, b1) before daylight exposure.

[3] = Drug stabilization effect under daylight exposure (Test Examples 182 to 211); design: key to Appearance (visual determination): ◯: no change; Δ: almost no change; x: change; conditions: photostabilizer 0.05 wt %, daylight exposure (80 MJ); for Remaining ratio (%): liquid chromatography
Protocol: (§2) For observation of the change of the appearance of each test sample (determination based on visual observation) and the measurement of the remaining ratio by liquid chromatography before and after daylight exposure (80 MJ), the test sample was prepared.

[4] = Dye stabilization effect in blend with sequestering agents (Test Examples 212 to 275); conditions: daylight exposure (80 MJ)
Protocol: Each test sample was prepared for observation of the change of the appearance of each test sample (determined visually) and measurement of the color difference (ΔE) before and after daylight exposure (80 MJ).
as §1

[5] = Drug stabilization effect blended with sequestering agent (Test Examples 372 to 391); design: key to Appearance (visual determination): ◯: no change; Δ: almost no change; x: change; conditions: sequestering agent blend amount 0.03, photostabilizer 0, daylight exposure (80 MJ)
Protocol: Then, the photostabilization effect of the pyridazine derivative in combination with sequestering agents on each drug and the change of the appearance of each composition were examined, by using the following formulation for assessment.
as §2

[6] = base perfume Fruity, photostabilizer 0.1 wt %
[7] = natural perfume Nelori oil, photostabilizer 0.1 wt %
[8] = synthetic perfume Limonene oil, photostabilizer 0.05 wt %
[9] = dye Blue 1 (Brilliant Blue FCF) 0.0001 wt %
[10] = dye Green 3 (Fast Green FCF) 0.001 wt %
[11] = dye Red 227 (Acid Fuchsine D) 0.0001 wt %
[12] = dye Yellow 5 (Sunset Yellow FCF) 0.001 wt %
[13] = dyes Yellow 203 (Quinoline Yellow WS) 0.0001 + Yellow 5 (Sunset Yellow FCF) 0.0001 wt %
[14] = drug Dipotassium glycyrrhizinate 0.05 wt %
[15] = drug L-ascorbic acid 2-glucoside 2.0 wt %
[16] = base perfume Muge, photostabilizer 0.05 wt %
[17] = base perfume Spicy, photostabilizer 0.2 wt %
[18] = natural perfume Jasmine oil, photostabilizer 0.05 wt %
[19] = synthetic perfume Rose oxide, photostabilizer 0.2 wt %
[20] = dyes Red 106 (Acid red) 0.00001 + Yellow 203 (Quinoline Yellow WS) 0.0001 wt %
[21] = dyes Red 213 (Rhodamine B) 0.00001 + Blue 1 (Brilliant Blue FCF) 0.00001 wt %
[22] = dyes Red 227 (Acid Fuchsine D) 0.0001 + Yellow 5 (Sunset Yellow FCF) 0.0001 wt %
[23] = dyes Red 401 (Violanin R) 0.0001 + Blue 1 (Brilliant Blue FCF) 0.00001 wt %
[24] = drug dibutylhydroxytoluene 0.01 wt %
[25] = drug dl-α-tocopherol 2-L-ascorbic acid phosphate diester potassium salt 0.01 wt %
[26] = drug dl-α-tocopherol 2-L-ascorbic acid phosphate diester potassium salt 0.01
[27] = dye Blue 1 (Brilliant Blue FCF) 0.001, sequestering agent 0.05 alone, photostabilizer 0
[28] = dye Red 227 (Acid Fuchsine D) 0.0001, sequestering agent 0.02 alone, photostabilizer 0
[29] = drug Glycyrrhizinic acid dipotassium 0.05
[30] = drug L-ascorbic acid 2-glucoside 2.0
[31] = drug dibutylhydroxy toluene 0.01

In the case of `OCCNc1ccc(NCCO)nn1` [3,6-Bis(2-hydroxyethylamino)pyridazine, 3,6-bis(2-hydroxyethylamino)pyridazine], the odor determination [1, 6] is reported as “◯”, the odor determination [1, 7] is reported as “◯” and the odor determination [1, 8] is reported as “◯”. The “Appearance (visual determination)” value [2, 9] was “◯”, the “Δ E” value [2, 9] was 1.38 and the “Appearance (visual determination)” value [2, 10] was “◯”. The “Δ E” value [2, 10] was 0.63, the “Appearance (visual determination)” value [2, 11] was “◯” and the “Δ E” value [2, 11] was 0.64. For the same compound, the “Appearance (visual determination)” value [2, 12] was “◯”, the “Δ E” value [2, 12] was 0.66 and the “Appearance (visual determination)” value [2, 13] was “◯”. For the same compound, the “Δ E” value [2, 13] was 0.47, the “Appearance (visual determination)” value [3, 14] was “◯” and the “Remaining ratio (%)” value [3, 14] was 98.8%. The “Appearance (visual determination)” value [3, 15] was “◯” and the “Remaining ratio (%)” value [3, 15] was 98.8%.

For `Oc1nnccc1N1CCOCC1` [3-Hydroxy-4-morpholinopyridazine, 3-hydroxy-4-morpholinopyridazine], the odor determination [1, 6] was “◯”, the odor determination [1, 16] was “◯” and the odor determination [1, 17] was “◯”. For the same compound, the odor determination [1, 18] was “◯”, the odor determination [1, 19] was “◯” and the “Appearance (visual determination)” value [2, 9] was “◯”. The “Δ E” value [2, 9] was 1.26, the “Appearance (visual determination)” value [2, 10] was “◯” and the “Δ E” value [2, 10] was 0.48. The “Appearance (visual determination)” value [2, 11] was “◯”, the “Δ E” value [2, 11] was 0.60 and the “Appearance (visual determination)” value [2, 12] was “◯”. For the same compound, the “Δ E” value [2, 12] was 0.62, the “Appearance (visual determination)” value [2, 20] was “◯” and the “Δ E” value [2, 20] was 0.80. The “Δ E” value ([4]; dyes Red 401 (Violanin R) 0.0001 + Blue 1 (Brilliant Blue FCF) 0.00001, no sequestering agent, photostabilizer blend amount 0.02) was 1.34, the “Δ E” value ([4]; dyes Red 401 (Violanin R) 0.0001 + Blue 1 (Brilliant Blue FCF) 0.00001, with ethylenediaminetetraacetate trisodium 0.03, photostabilizer blend amount 0.02) was 0.91 and the “Appearance (visual determination)” value [3, 14] was “◯”. The “Remaining ratio (%)” value [3, 14] was 99.2%.

With `COc1ccc(C(=O)CC(=O)c2ccc(C(C)(C)C)cc2)cc1` [4-tert-Butyl-4′-methoxydibenzoylmethane, reference compound] the odor determination [1, 6] was “Δ”, the odor determination [1, 16] was “Δ” and the odor determination ([1]; base perfume Rose, photostabilizer 0.05 wt %) was “Δ”. For the same compound, the odor determination [1, 17] was “Δ”, the odor determination ([1]; base perfume Woody, photostabilizer 0.1 wt %) was “Δ” and the odor determination [1, 18] was “Δ”. The odor determination ([1]; natural perfume Lavender oil, photostabilizer 0.1 wt %) was “Δ”, the odor determination [1, 7] was “Δ” and the odor determination ([1]; natural perfume Rose oil, photostabilizer 0.05 wt %) was “Δ”. For the same compound, the odor determination ([1]; natural perfume Ylang ylang oil, photostabilizer 0.2 wt %) was “Δ”, the odor determination ([1]; synthetic perfume Citral, photostabilizer 0.1 wt %) was “Δ” and the odor determination [1, 8] was “Δ”. For the same compound, the odor determination ([1]; synthetic perfume Linalool, photostabilizer 0.05 wt %) was “Δ”, the odor determination ([1]; synthetic perfume Linalyl acetate, photostabilizer 0.1 wt %) was “Δ” and the odor determination [1, 19] was “Δ”. The “Appearance (visual determination)” value [2, 9] was “Δ”, the “Δ E” value [2, 9] was 1.49 and the “Appearance (visual determination)” value [2, 10] was “Δ”. The “Δ E” value [2, 10] was 0.62, the “Appearance (visual determination)” value [2, 11] was “Δ” and the “Δ E” value [2, 11] was 0.95. For the same compound, the “Appearance (visual determination)” value [2, 12] was “Δ”, the “Δ E” value [2, 12] was 0.88 and the “Appearance (visual determination)” value [2, 20] was “Δ”. The “Δ E” value [2, 20] was 1.02, the “Appearance (visual determination)” value [2, 21] was “Δ” and the “Δ E” value [2, 21] was 1.17. For the same compound, the “Appearance (visual determination)” value [2, 22] was “Δ”, the “Δ E” value [2, 22] was 0.80 and the “Appearance (visual determination)” value [2, 23] was “Δ”. The “Δ E” value [2, 23] was 0.93, the “Appearance (visual determination)” value [2, 13] was “◯” and the “Δ E” value [2, 13] was 0.48. The “Appearance (visual determination)” value [3, 14] was “Δ”, the “Remaining ratio (%)” value [3, 14] was 96.6% and the “Appearance (visual determination)” value [3, 15] was “Δ”. For the same compound, the “Remaining ratio (%)” value [3, 15] was 97.0%, the “Appearance (visual determination)” value [3, 24] was “Δ” and the “Remaining ratio (%)” value [3, 24] was 95.2%. For the same compound, the “Appearance (visual determination)” value [3, 25] was “Δ”, the “Remaining ratio (%)” value [3, 25] was 94.5% and the “Appearance (visual determination)” value ([3]; drug salicylic acid 0.1 wt %) was “Δ”. The “Remaining ratio (%)” value ([3]; drug salicylic acid 0.1 wt %) was 97.2%.

With `O=C([O-])CN(CCO)CCN(CC(=O)[O-])CC(=O)[O-].[Na+].[Na+].[Na+]` [ethylenediaminehydroxyethyl trisodium triacetate] the “Appearance (visual determination)” value [5, 26] was “x”, the “Remaining ratio (%)” value [5, 26] was 70.1% and the “Δ E” value [4, 27] was 7.63. The “Δ E” value [4, 28] was 1.43, the “Δ E” value ([4]; dyes Red 106 (Acid Red) 0.00001 + Yellow 203 (Quinoline Yellow WS) 0.0001, sequestering agent blend amount 0.02, photostabilizer 0) was 3.56 and the “Δ E” value ([4]; dyes Red 213 (Rhodamine B) 0.00001 + Blue 1 (Brilliant Blue FCF) 0.00001, sequestering agent blend amount 0.03, photostabilizer 0) was 3.85.

For sodium metaphosphate, the “Appearance (visual determination)” value [5, 29] was “x”, the “Remaining ratio (%)” value [5, 29] was 85.8% and the “Appearance (visual determination)” value [5, 30] was “x”. The “Remaining ratio (%)” value [5, 30] was 85.2%, the “Appearance (visual determination)” value [5, 31] was “x” and the “Remaining ratio (%)” value [5, 31] was 54.7%. The “Δ E” value [4, 27] was 7.78, the “Δ E” value ([4]; dye Green 3 (Fast Green FCF) 0.001, sequestering agent 0.1 alone, photostabilizer 0) was 1.77 and the “Δ E” value [4, 28] was 1.37. The “Δ E” value ([4]; dye Yellow 5 (Sunset Yellow FCF) 0.0001, sequestering agent 0.03 alone, photostabilizer 0) was 1.68, the “Δ E” value ([4]; dyes Red 227 (Acid Fuchsine D) 0.0001 + Yellow 203 (Quinoline Yellow WS) 0.0001, sequestering agent blend amount 0.02, photostabilizer 0) was 3.01 and the “Δ E” value ([4]; dyes Red 401 (Violanin R) 0.0001 + Green 3 (Fast Green FCF) 0.00001, sequestering agent blend amount 0.03, photostabilizer 0) was 4.23. For the same compound, the “Δ E” value ([4]; dyes Yellow 203 (Quinoline Yellow WS) 0.0001 + Yellow 5 (Sunset Yellow FCF) 0.0001, sequestering agent blend amount 0.01, photostabilizer 0) was 1.44.
